Assay results taken from patent US20070128669A1, “Serum-free expansion of cells in culture” (Institute for Chemical Genomics, priority 2005, published 2007).

Key:
Mouse D3 ESCs = assay: Long term expansion of ESCs without MEF feeders or LIF; format: cell-based
Protocol: FIG. 1. […] FIG. 1A, Structure of IQ-1. FIG. 1B, IQ-1 dose dependently maintains alkaline phosphatase activity. FIG. 1C, IQ-1, dose dependently, maintains SSEA-1 expression. SSEA-1 expression was analyzed 7 days after addition of IQ-1. FIG. 1D, IQ-1 enabled ESCs to proliferate in the undifferentiated state for at least 65 days, without MEF feeders or LIF. ESCs, in media supplemented with 4 μg/ml IQ-1, were passaged 2-3 times every week at 1×10^5-1×10^6 cells per 6 cm dish and counted. All error bars represent mean±SD.
(§1) Cell culture. ESCs, D3ES (ATCC CRL-1934) were maintained on Mitomycin C treated MEFs in mouse ESC medium containing DMEM (Invitrogen) supplemented with 15% FBS (Invitrogen), 0.1 mM MEM nonessential amino acids (Invitrogen), 0.1 mM 2-mercaptoethanol (Sigma), 2 mM L-glutamine (Invitrogen) and 1,000 U/ml LIF (CHEMICON). To remove MEFs, cells were collected by trypsinization and plated on gelatin-coated culture dishes for 20 min. Non-adherent cells consisting mainly of ESCs were replated on gelatin-coated culture dishes again. Non-adherent cells were used for further experiments. P19 cells were cultured according to conditions recommended by the ATCC. Cells were incubated at 37° C. in a 5% CO2 incubator. Purified Wnt3a was purchased (R&D Systems).
IQ-1 allowed for long term expansion of ESCs in culture without MEFs and without the addition of exogenous LIF. […]

ESCs [1] = assay: Long term feeder-free culture of ESCs in serum-free (15% KSR) media; format: cell-based, mouse
Protocol: FIG. 7. […] ESCs were cultured in 15% KSR, 4 μg/ml of IQ-1 and 100 ng/ml Wnt3a. ESCs were passaged 2-3 times per week at 1×10^5-1×10^6 cells per 6 cm dish and cells were counted.
FIG. 8. […] AP activity of ESCs cultured for 7 days in IQ-1 containing media supplemented with 15% FCS or 15% KSR. […] (Error bars represent ±S.D.)
FIG. 9. […] Over the 42-day culture period, ESCs cultured in the media in the presence of IQ-1 and Wnt3a maintain expression of the pluripotency markers, (a) Nanog, (b) Oct3/4 and (c) Rex-1. The expression level on day 0 was set as 1.
as §1

p300/β-catenin complex = assay: Co-immunoprecipitation of β-catenin with p300 in P19 cells; format: cell-based; conditions: Wnt3a, 10 μM, 24 hours
Protocol: Co-immunoprecipitation of β-catenin with CBP or p300 in P19 cells. Co-immunoprecipitation was performed as described in (27). Briefly, P19 cells were treated with 10 μM ICG-001 or 10 μM IQ-1 (control DMSO was 0.025%) for 24 hours, after which they were washed and lysed […]. Nuclear fraction was isolated and precleared with antibodies to CBP(A-22) or p300(N-15). β-catenin was detected using a mouse monoclonal antibody (Becton Dickinson) at a dilution of 1:5000.

[2] = test system: p300 Ser89 phosphorylation; assay: Immunoblot of p300 and phospho-serine89-p300 in P19 cells; format: cell-based; conditions: Wnt3a stimulated P19 cells, 10 μM, 24 hours
Protocol: Detection of CBP, p300, and phospho-serine89-p300 in P19 cells. P19 cells exposed to either Wnt3A or vehicle control, after which IQ-1 was added to a final concentration of 10 μM. Control DMSO was 0.025%. Cells were incubated for 24 hours. At the end of this incubation period, cells were washed, lysed and subjected to SDS-PAGE. CBP and p300 were detected using the rabbit polyclonal antibody (A-22)(1:5000); and (C-20)(1:5000) (Santa Cruz), respectively. Phospho-serine89-p300 was detected using custom antisera at a dilution of 1:100.

ESCs [3] = assay: Embryoid body formation and differentiation of long term cultured ESCs; format: cell-based, mouse
Protocol: FIG. 5. […] FIG. 5A, long term cultured ESCs were induced to form embryoid bodies in suspension cultures for 3 days. ESCs cultured in media in the presence of Wnt3A and IQ-1 (4 μg/ml) for 48 days were able to form embryoid bodies (Left). ESCs lose their ability to form embryoid bodies after 3 days of culturing in the absence IQ-1 (Right). FIG. 5B, IQ-1 treated ESCs derived embryoid bodies were cultured (adherence culture) for 7-14 days to induce further differentiation. […] FIG. 5C, model depicting the proposed mechanism of action of IQ-1.
Immunocytochemistry and Antibodies. Cells were fixed for 20 min with 4% paraformaldehyde in PBS. Immunostaining was carried out using standard protocols. Primary antibodies were used at the following dilutions: anti α-fetoprotein mouse monoclonal (R&D systems, 10 ug/ml), anti-Actin, Smooth muscle Ab-1 mouse monoclonal (LAB VISION, 1:1), anti-GATA4 mouse monoclonal (SANTA CRUZ, 1:100), anti-MAP (microtubule associated protein)2 mouse monoclonal (Chemicon, 1:200), βIII-tubulin mouse monoclonal (Chemicon, 1:200), anti-Oligodendrocyte mouse monoclonal (Chemicon, 1:1,000). Secondary antibodies were Alexa Fluor 488 or 594 goat anti-mouse IgG (H+L)(Invitrogen, 1:200). Cells were imaged using an Olympus IX 70 microscope with ×40-200 magnification.

zebrafish embryos = assay: Zebrafish embryo development (convergent extension); format: in vivo, zebrafish (danio rerio); conditions: 1 μM, 1-cell stage embryos, 24 h
Protocol: Zebrafish experiments. Wild-type (AB) zebrafish strain at 1-cell stage were treated with IQ-1 at a final concentration of 1 μM in embryo medium for 24 h. Control zebrafish embryos were incubated at an equivalent concentration of DMSO. At the end of this 24 h treatment, embryos were manually dechorionated and imaged. Zebrafish embryos were maintained at 28° C. Results shown are representative of those obtained from at least 10 embryos for each group, from 2 independent experiments.

Murine ESCs (D3 ES) = assay: Alkaline phosphatase activity of ESCs (compound screen); format: cell-based, mouse; conditions: media containing 15% FCS, without exogenous LIF
Protocol: as §1
Compound Screens. For the small molecule screen, alkaline phosphatase activity of ESCs was determined. ESCs were plated into 96-well tissue culture plates (Falcon) at a density of 316-1,000 cells per well in ESC medium without LIF. Compounds were added at a final concentration of 4 μg/ml. Cells were treated with compounds for 7 days and test cell populations were washed with PBS and 100 μl of p-nitrophenyl phosphate solution (MOSS Inc.) was added. The absorbance at 405 nm was measured by spectrophotometer (Spectramax, Molecular Devices).

CC(=O)c1ccc(NN=C(C(N)=O)C2=NC(C)(C)Cc3ccccc32)cc1 [IQ-1]
time ESCs proliferate in the undifferentiated state (Mouse D3 ESCs; 4 μg/ml IQ-1, without MEF feeders or LIF): at least 65 days | ESC proliferation rate (Mouse D3 ESCs; 15% FCS plus 4 μg/ml IQ-1, 65 days, without MEFs or LIF): ~2 log increase every ten days | proliferation and expression of Oct4, Nanog and Rex1, combination of Wnt3a and IQ-1 (ESCs [1]; 15% KSR, Wnt3a 100 ng/ml plus IQ-1 4 μg/ml): allowed for proliferation and maintenance of pluripotency | time ESC proliferation and pluripotency maintained in culture (ESCs [1]; IQ-1 in conjunction with purified Wnt3a, absence of serum): at least 48 days | maintenance of undifferentiated status of ESCs, agent alone (ESCs [1]; KSR media, single agent): Neither Wnt3a nor IQ-1 alone was sufficient | p300/β-catenin interaction (p300/β-catenin complex): at the expense of the p300/β-catenin complex | phosphorylation level of p300 Ser89 [2]: dramatic decrease | total amount of p300 [2]: not affected | pluripotency: embryoid body formation and differentiation to three germ layers (ESCs [3]; IQ-1 (4 μg/ml) and Wnt3a, after day 48): maintained the pluripotency of ESCs | time to loss of pluripotency after removal of IQ-1 (ESCs [3]; removal of IQ-1): ≤ 3 days | zebrafish embryo development (zebrafish embryos): significant developmental defects | Alkaline Phosphatase (AP) activity (Murine ESCs (D3 ES)): dose dependently increased AP activity
